From patent publication US20230024442A1, “BIFUNCTIONAL COMPOUNDS FOR GRADING BTK VIA UBIQUITIN PROTEOSOME PATHWAY” (NURIX THERAPEUTICS, INC., priority 2019, published 2023) come the findings set out here.

Each structure is given as a SMILES string.

This assay deals with T1, BTK (Homo sapiens, UniProt Q06187).
T1 construct: endogenous in cells; host or cells: Ramos (ATCC CRL-1596)
T1 sequence (Q06187 whole entry): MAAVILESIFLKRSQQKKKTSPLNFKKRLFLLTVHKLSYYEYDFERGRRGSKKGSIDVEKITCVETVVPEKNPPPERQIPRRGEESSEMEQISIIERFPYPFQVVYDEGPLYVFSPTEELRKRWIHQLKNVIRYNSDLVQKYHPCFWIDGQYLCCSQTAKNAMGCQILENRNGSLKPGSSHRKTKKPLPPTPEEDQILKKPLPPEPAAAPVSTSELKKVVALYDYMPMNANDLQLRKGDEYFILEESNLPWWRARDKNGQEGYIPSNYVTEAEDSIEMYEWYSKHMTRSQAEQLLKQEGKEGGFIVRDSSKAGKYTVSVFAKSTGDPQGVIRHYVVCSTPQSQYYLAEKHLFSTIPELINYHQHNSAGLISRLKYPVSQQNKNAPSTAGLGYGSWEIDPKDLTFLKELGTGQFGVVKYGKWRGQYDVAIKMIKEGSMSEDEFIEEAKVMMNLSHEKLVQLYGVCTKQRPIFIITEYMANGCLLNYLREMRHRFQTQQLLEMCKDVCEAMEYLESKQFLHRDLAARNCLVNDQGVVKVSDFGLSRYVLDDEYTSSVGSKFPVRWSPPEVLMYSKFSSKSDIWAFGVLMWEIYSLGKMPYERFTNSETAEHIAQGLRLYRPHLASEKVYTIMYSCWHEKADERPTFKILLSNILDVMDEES
The assay can be described thus: Cellular BTK HTRF Assay (BTK levels in Ramos cells). The note with it: Ramos cells, 50,000 cells, incubated four hours at 37° C.; BTK levels by Cisbio Total-BTK HTRF relative to DMSO-treated cells. It is filed as cell-based. How it is done: Ramos (CRL-1596) cells were obtained from American Type Culture Collection and were grown in RPMI-1640 media (ATCC, 30-2001) supplemented with 10% heat-inactivated FBS (Corning Premium Fetal Bovine Serum from Fisher, MT35015CV).
Compounds of the present invention were added to 50,000 Ramos cells in round-bottom 96 well plates with a final DMSO concentration of […] and were incubated at 37° C. 5% CO2 for four hours. BTK levels were determined using Cisbio Total-BTK HTRF ([…] Time-Resolved Fluorescence) kit (63ADK064PEG) according to manufacturer's protocol. Briefly, cells were incubated in 1× supplied lysis buffer for 30 minutes. In an opaque white low volume 96 well plate (Cisbio, 66PL96005), cell lysate was combined with two different specific BTK antibodies, one conjugated with Eu^3+-Cryptate FRET donor and one conjugated with d2 FRET acceptor. Assay controls include wells containing cell lysate with only the Eu^3+-Cryptate FRET donor antibody and wells containing both HTRF antibodies and lysis buffer without cells or control lysate provided by Cisbio. HTRF ratio was calculated as (acceptor signal at 665 nm/donor signal at 620 nm)×10^4. Background HTRF levels were determined from the control well containing the donor, but no acceptor, antibody. Background HTRF levels were subtracted from all samples. Readouts were reported as HTRF levels relative to HTRF levels of DMSO-treated cells. Four-parameter non-linear regressions were performed in GraphPad Prism 7.02 to obtain DC50 values. DC50 values are provided in Table 7, wherein A<1 nM, 1 nM≤B≤10 nM, and 10 nM<C<1 μM.
(In TR-FRET formats the signal depends on donor and acceptor labels being close together.)
Compound `CN[C@@H](C)C(=O)N[C@H](C(=O)N1CCC[C@H]1c1nc(C(=O)c2cccc(OCCOCCOCCOCCC(=O)N3CCn4nc(Nc5cc(-c6ccnc(-n7ncc8cc(C(C)(C)C)cc(F)c8c7=O)c6CO)cn(C)c5=O)cc4C3)c2)cs1)C1CCCCC1` (stereo in doubt) [Compound 7, (S)—N—((S)-2-((S)-2-(4-(3-(2-(2-(2-(3-(2-((2′-(6-(tert-butyl)-8-fluoro-1-oxophthalazin-2(1H)-yl)-3′-(hydroxymethyl)-1-methyl-6-oxo-1,6-dihydro-[3,4′-bipyridin]-5-yl)amino)-6,7-dihydropyrazolo[1,5-a]pyrazin-5(4H)-yl)-3-oxopropoxy)ethoxy)ethoxy)ethoxy)benzoyl)thiazol-2-yl)pyrrolidin-1-yl)-1-cyclohexyl-2-oxoethyl)-2-(methylamino)propanamide] gave a DC50 of 10 to 1000 nM.

Take `Cn1cc(-c2ccnc(-n3ncc4cc(C(C)(C)C)cc(F)c4c3=O)c2CO)cc(Nc2cc3n(n2)CCN(C(=O)CCOCCNc2cccc4c2C(=O)N(C2CCC(=O)NC2=O)C4=O)C3)c1=O` (stereo not drawn) [Compound 1]: the DC50 was in the range of 1 to 10 nM.

With `Cn1cc(-c2ccnc(-n3ncc4cc(C(C)(C)C)cc(F)c4c3=O)c2CO)cc(Nc2cc3n(n2)CCN(C(=O)CCOCCCc2cccc4c2CN(C2CCC(=O)NC2=O)C4=O)C3)c1=O` (stereo not drawn) [Compound 2], the DC50 was 10 to 1000 nM.

Compound `Cn1cc(-c2ccnc(-n3ncc4cc(C(C)(C)C)cc(F)c4c3=O)c2CO)cc(Nc2cc3n(n2)CCN(C(=O)CCOCCOCCOCCNc2cccc4c2C(=O)N(C2CCC(=O)NC2=O)C4=O)C3)c1=O` (stereo not drawn) [Compound 3] had a DC50 of 1 to 10 nM.

In turn, `CN[C@@H](C)C(=O)N[C@H](C(=O)N1C[C@@H](NC(=O)CCOCCC(=O)N2CCn3nc(Nc4cc(-c5ccnc(-n6ncc7cc(C(C)(C)C)cc(F)c7c6=O)c5CO)cn(C)c4=O)cc3C2)C[C@H]1C(=O)N[C@@H]1CCCc2ccccc21)C1CCCCC1` [Compound 4, (2S,4S)-4-(3-(3-(2-((2′-(6-(tert-butyl)-8-fluoro-1-oxophthalazin-2(1H)-yl)-3′-(hydroxymethyl)-1-methyl-6-oxo-1,6-dihydro-[3,4′-bipyridin]-5-yl)amino)-6,7-dihydropyrazolo[1,5-a]pyrazin-5(4H)-yl)-3-oxopropoxy)propanamido)-1-((S)-2-cyclohexyl-2-((S)-2-(methylamino)propanamido)acetyl)—N—((R)-1,2,3,4-tetrahydronaphthalen-1-yl)pyrrolidine-2-carboxamide] displayed a DC50 of 10 to 1000 nM.

Take `CN[C@@H](C)C(=O)N[C@H](C(=O)N1C[C@@H](NC(=O)CCOCCOCCOCCC(=O)N2CCn3nc(Nc4cc(-c5ccnc(-n6ncc7cc(C(C)(C)C)cc(F)c7c6=O)c5CO)cn(C)c4=O)cc3C2)C[C@H]1C(=O)N[C@@H]1CCCc2ccccc21)C1CCCCC1` [Compound 5, (2S,4S)-4-(3-(2-(2-(3-(2-((2′-(6-(tert-butyl)-8-fluoro-1-oxophthalazin-2(1H)-yl)-3′-(hydroxymethyl)-1-methyl-6-oxo-1,6-dihydro-[3,4′-bipyridin]-5-yl)amino)-6,7-dihydropyrazolo[1,5-a]pyrazin-5(4H)-yl)-3-oxopropoxy)ethoxy)ethoxy)propanamido)-1-((S)-2-cyclohexyl-2-((S)-2-(methylamino)propanamido)acetyl)—N—((R)-1,2,3,4-tetrahydronaphthalen-1-yl)pyrrolidine-2-carboxamide]: the DC50 lay in the range of 10 to 1000 nM.

`CN[C@@H](C)C(=O)N[C@H](C(=O)N1CCC[C@H]1c1nc(C(=O)c2cccc(OCCOCCC(=O)N3CCn4nc(Nc5cc(-c6ccnc(-n7ncc8cc(C(C)(C)C)cc(F)c8c7=O)c6CO)cn(C)c5=O)cc4C3)c2)cs1)C1CCCCC1` [Compound 6, (S)—N—((S)-2-((S)-2-(4-(3-(2-(3-(2-((2′-(6-(tert-butyl)-8-fluoro-1-oxophthalazin-2(1H)-yl)-3′-(hydroxymethyl)-1-methyl-6-oxo-1,6-dihydro-[3,4′-bipyridin]-5-yl)amino)-6,7-dihydropyrazolo[1,5-a]pyrazin-5(4H)-yl)-3-oxopropoxy)ethoxy)benzoyl)thiazol-2-yl)pyrrolidin-1-yl)-1-cyclohexyl-2-oxoethyl)-2-(methylamino)propanamide] displayed a DC50 of 10 to 1000 nM.

`Cn1cc(-c2ccnc(-n3ncc4cc(C(C)(C)C)cc(F)c4c3=O)c2CO)cc(Nc2cc3n(n2)CCN(C(=O)CCCNc2cccc4c2C(=O)N(C2CCC(=O)NC2=O)C4=O)C3)c1=O` (stereo not drawn) [Compound 9]: the DC50 was in the range of 1 to 10 nM.

In the case of `Cn1cc(-c2ccnc(-n3ncc4cc(C(C)(C)C)cc(F)c4c3=O)c2CO)cc(Nc2cc3n(n2)CCN(C(=O)CCNc2cccc4c2C(=O)N(C2CCC(=O)NC2=O)C4=O)C3)c1=O` (stereo not drawn) [Compound 10], the DC50 fell in the range of 10 to 1000 nM.

`Cn1cc(-c2ccnc(-n3ncc4cc(C(C)(C)C)cc(F)c4c3=O)c2CO)cc(Nc2cc3n(n2)CCN(C(=O)CCCCc2cccc4c2CN(C2CCC(=O)NC2=O)C4=O)C3)c1=O` (stereo not drawn) [Compound 11] returned a DC50 of 1 to 10 nM.

As for `Cn1cc(-c2ccnc(-n3ncc4cc(C(C)(C)C)cc(F)c4c3=O)c2CO)cc(Nc2cc3n(n2)CCN(C(=O)CNc2cccc4c2C(=O)N(C2CCC(=O)NC2=O)C4=O)C3)c1=O` (stereo not drawn) [Compound 12], the DC50 lay within 1 to 10 nM.

`Cn1cc(-c2ccnc(-n3ncc4cc(C(C)(C)C)cc(F)c4c3=O)c2CO)cc(Nc2cc3n(n2)CCN(C(=O)CCCc2cccc4c2CN(C2CCC(=O)NC2=O)C4=O)C3)c1=O` (stereo not drawn) [Compound 13]: the DC50 lay within 10 to 1000 nM.

For the compound `Cn1cc(-c2ccnc(-n3ncc4cc(C(C)(C)C)cc(F)c4c3=O)c2CO)cc(Nc2cc3n(n2)CCN(C(=O)CN2CCN(CCCc4cccc5c4C(=O)N(C4CCC(=O)NC4=O)C5=O)CC2)C3)c1=O` (stereo not drawn) [Compound 14], the DC50 was in the range of 1 to 10 nM.

With `Cn1cc(-c2ccnc(-n3ncc4cc(C(C)(C)C)cc(F)c4c3=O)c2CO)cc(Nc2cc3n(n2)CCN(C(=O)[C@H]2CC[C@H](Nc4cccc5c4C(=O)N(C4CCC(=O)NC4=O)C5=O)CC2)C3)c1=O` (stereo partly drawn) [Compound 15], the DC50 was in the range of 1 to 10 nM.

In the case of `Cn1cc(-c2ccnc(-n3ncc4cc(C(C)(C)C)cc(F)c4c3=O)c2CO)cc(Nc2cc3n(n2)CCN(C(=O)CN2CCN(CCCc4cccc5c4CN(C4CCC(=O)NC4=O)C5=O)CC2)C3)c1=O` (stereo not drawn) [Compound 16], the DC50 fell in the range of 10 to 1000 nM.

`Cn1cc(-c2ccnc(-n3ncc4cc(C(C)(C)C)cc(F)c4c3=O)c2CO)cc(Nc2cc3n(n2)CCN(C(=O)[C@H]2C[C@@H](OCCCc4cccc5c4CN(C4CCC(=O)NC4=O)C5=O)C2)C3)c1=O` (stereo partly drawn) [Compound 17] returned a DC50 of 10 to 1000 nM.

`Cn1cc(-c2ccnc(-n3ncc4cc(C(C)(C)C)cc(F)c4c3=O)c2CO)cc(Nc2cc3n(n2)CCN(CCCCc2cccc4c2CN(C2CCC(=O)NC2=O)C4=O)C3)c1=O` (stereo not drawn) [Compound 18] had a DC50 of 1 to 10 nM.

In the case of `Cn1cc(-c2ccnc(-n3ncc4cc(C(C)(C)C)cc(F)c4c3=O)c2CO)cc(Nc2cc3n(n2)CCN(CCCCCCc2cccc4c2CN(C2CCC(=O)NC2=O)C4=O)C3)c1=O` (stereo not drawn) [Compound 19], the DC50 lay within 1 to 10 nM.

`Cn1cc(-c2ccnc(-n3ncc4cc(C(C)(C)C)cc(F)c4c3=O)c2CO)cc(Nc2cc3n(n2)CCN(CCCc2cccc4c2CN(C2CCC(=O)NC2=O)C4=O)C3)c1=O` (stereo not drawn) [Compound 20] showed a DC50 of 1 to 10 nM.

`Cn1cc(-c2ccnc(-n3ncc4cc(C(C)(C)C)cc(F)c4c3=O)c2CO)cc(Nc2cc3n(n2)CCN(C(=O)CCOCCCc2cccc4c2C(=O)N(C2CCC(=O)NC2=O)C4=O)C3)c1=O` (stereo not drawn) [Compound 21] came in with a DC50 of 10 to 1000 nM.

Consider `Cn1cc(-c2ccnc(-n3ncc4cc(C(C)(C)C)cc(F)c4c3=O)c2CO)cc(Nc2cc3n(n2)CCN(C(=O)CN2CCN(CCc4cccc5c4CN(C4CCC(=O)NC4=O)C5=O)CC2)C3)c1=O` (stereo not drawn) [Compound 22], for which the DC50 was in the range of 10 to 1000 nM.
